One experiment relates to CCF-STTG1. Description: Cytotoxicity against human CCF-STTG1 cells assessed as reduction in cell viability measured at 48 hrs by resazurin reagent based assay. It counts as functional. Particulars: CCF-STTG1, 48 h. In general terms: Alamar Blue is a resazurin reagent that responds to reducing activity.
For experiment [1], the system named is HepG2. As to the kind of experiment: Cytotoxicity against human HepG2 cells assessed as reduction in cell viability measured at 48 hrs by resazurin reagent based assay. It counts as functional. Particulars: HepG2, 48 h.
The target of experiment [2] is DNA topoisomerase 2-alpha (Homo sapiens) (UniProt P11388). Description: Inhibition of human topoisomerase 2a assessed as reduction in decatenation of kinetoplast DNA at 25 uM using kinetoplast DNA as substrate incubated for 2 hrs by ethidium bromide staining based agarose gel electrophoresis method relative to control.
The target of experiment [3] is T1, DNA topoisomerase 1 (Homo sapiens) (UniProt P11387).
T1 sequence (whole entry): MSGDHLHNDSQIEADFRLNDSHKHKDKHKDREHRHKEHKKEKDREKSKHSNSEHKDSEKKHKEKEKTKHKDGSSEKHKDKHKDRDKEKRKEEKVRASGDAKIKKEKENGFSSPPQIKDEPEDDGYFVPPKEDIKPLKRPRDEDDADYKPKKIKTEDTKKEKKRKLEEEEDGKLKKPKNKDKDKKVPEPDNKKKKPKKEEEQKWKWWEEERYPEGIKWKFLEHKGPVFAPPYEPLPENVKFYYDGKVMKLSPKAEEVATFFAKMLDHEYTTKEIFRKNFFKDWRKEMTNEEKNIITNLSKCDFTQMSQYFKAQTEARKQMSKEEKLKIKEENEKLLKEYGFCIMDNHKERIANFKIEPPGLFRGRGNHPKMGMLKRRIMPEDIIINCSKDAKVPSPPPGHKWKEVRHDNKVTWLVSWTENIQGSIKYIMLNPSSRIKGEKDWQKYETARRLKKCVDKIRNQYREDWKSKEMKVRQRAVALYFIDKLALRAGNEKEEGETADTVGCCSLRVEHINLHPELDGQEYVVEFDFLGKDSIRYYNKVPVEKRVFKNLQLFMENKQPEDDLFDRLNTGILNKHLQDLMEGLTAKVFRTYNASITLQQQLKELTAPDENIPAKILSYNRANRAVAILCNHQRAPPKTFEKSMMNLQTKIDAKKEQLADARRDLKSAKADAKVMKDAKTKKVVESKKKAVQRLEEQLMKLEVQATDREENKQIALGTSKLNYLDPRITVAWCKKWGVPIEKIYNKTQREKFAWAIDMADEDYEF
Description: Inhibition of topoisomerase 1 (unknown origin) assessed as relaxation of supercoiled plasmid pUC18 measured after 30 mins by ethidium bromide staining based agarose gel electrophoresis.

The subject of experiment [4] is HepG2. Description: Cytotoxicity against human HepG2 cells assessed as reduction in cell viability at 100 uM measured at 48 hrs by resazurin reagent based assay relative to control. It counts as functional.
Experiment [5] concerns the target T1, DNA topoisomerase 1 (Homo sapiens). As to the kind of experiment: Inhibition of topoisomerase 1 (unknown origin) assessed as relaxation of supercoiled plasmid pUC18 DNA at 100 uM measured after 30 mins by ethidium bromide staining based agarose gel electrophoresis relative to control.
Experiment [6] relates to HepG2. Description: Cytotoxicity against human HepG2 cells assessed as reduction in cell viability at up to 100 uM measured at 48 hrs by resazurin reagent based assay. It is filed as functional.

Consider 8 compounds from ChEMBL document CHEMBL5053515, “Insights into Ergochromes of the Plant Pathogen Claviceps purpurea” (J Nat Prod, 2021).

Active and inactive are the calls of the source. The rule behind the calls is not given here.

Chain of DNA topoisomerase 2-alpha (Homo sapiens) (P11388 whole entry): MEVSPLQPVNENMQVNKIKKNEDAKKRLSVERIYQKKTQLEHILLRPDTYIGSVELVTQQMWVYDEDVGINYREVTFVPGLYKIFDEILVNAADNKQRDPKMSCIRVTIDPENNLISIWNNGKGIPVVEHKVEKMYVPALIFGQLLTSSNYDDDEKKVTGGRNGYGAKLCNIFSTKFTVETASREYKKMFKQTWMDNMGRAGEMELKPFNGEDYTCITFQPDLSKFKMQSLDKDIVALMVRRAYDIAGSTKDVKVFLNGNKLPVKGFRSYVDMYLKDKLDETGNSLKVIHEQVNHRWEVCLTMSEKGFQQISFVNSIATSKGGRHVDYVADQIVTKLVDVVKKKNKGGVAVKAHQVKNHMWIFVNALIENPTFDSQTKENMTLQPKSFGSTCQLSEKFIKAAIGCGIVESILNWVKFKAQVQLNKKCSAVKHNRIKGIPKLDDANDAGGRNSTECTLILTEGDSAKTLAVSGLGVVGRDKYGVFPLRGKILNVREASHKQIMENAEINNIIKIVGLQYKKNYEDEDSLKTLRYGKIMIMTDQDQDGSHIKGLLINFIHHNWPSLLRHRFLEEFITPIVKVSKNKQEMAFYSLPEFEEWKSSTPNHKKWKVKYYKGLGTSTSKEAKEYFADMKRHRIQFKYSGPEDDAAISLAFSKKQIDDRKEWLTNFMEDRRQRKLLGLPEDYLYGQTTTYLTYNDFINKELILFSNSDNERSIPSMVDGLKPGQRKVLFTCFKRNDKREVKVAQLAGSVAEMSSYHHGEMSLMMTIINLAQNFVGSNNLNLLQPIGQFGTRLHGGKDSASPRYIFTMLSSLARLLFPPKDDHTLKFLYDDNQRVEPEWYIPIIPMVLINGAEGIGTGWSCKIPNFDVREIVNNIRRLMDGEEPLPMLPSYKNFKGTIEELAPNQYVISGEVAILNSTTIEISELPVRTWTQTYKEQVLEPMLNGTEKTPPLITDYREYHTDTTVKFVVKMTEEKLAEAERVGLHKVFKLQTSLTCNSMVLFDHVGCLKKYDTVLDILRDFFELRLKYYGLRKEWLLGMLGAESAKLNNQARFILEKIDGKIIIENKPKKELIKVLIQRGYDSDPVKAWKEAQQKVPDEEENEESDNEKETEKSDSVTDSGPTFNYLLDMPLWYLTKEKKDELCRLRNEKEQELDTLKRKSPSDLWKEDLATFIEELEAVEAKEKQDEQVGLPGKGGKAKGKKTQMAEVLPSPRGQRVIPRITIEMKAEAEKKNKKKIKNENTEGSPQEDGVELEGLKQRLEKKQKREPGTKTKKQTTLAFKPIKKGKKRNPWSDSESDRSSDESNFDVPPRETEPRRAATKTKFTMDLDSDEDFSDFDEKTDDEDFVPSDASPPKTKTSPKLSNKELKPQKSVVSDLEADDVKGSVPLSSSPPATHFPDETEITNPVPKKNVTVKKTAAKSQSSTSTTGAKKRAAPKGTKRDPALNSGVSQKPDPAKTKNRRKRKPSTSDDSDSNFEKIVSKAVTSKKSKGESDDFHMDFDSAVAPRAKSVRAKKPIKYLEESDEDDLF

For orientation: IC50 means the concentration at which inhibition is half-maximal. Take `COC(=O)[C@]12Oc3ccc(-c4ccc(O)c5c4O[C@@]4(C(=O)OC)C(=C(O)C[C@@H](C)[C@@H]4O)C5=O)c(O)c3C(=O)C1=C(O)C[C@@H](C)[C@@H]2O`: the IC50 is 1 µM with CCF-STTG1 and 0.9 µM in the experiment on HepG2 [1].

Usually inhibition stands for the share of the control response that was lost under treatment. Consider `C[C@@H]1C[C@@]2(O)OC(=O)[C@@]3(Oc4ccc(-c5ccc6c(c5O)C(=O)C5(O)[C@@]7(O)C[C@@H](C)[C@H](O)[C@]5(O6)C(=O)O7)c(O)c4C(=O)C23O)[C@H]1O` (stereo partly specified), for which the inhibition result in experiment [2] and in experiment [3] was “inactive” in each case. Moreover, the IC50 was determined as 2.3 µM with CCF-STTG1 and 59.9 µM with HepG2 [1]. Besides, the Activity with HepG2 [4] came out at 3%.

In the case of `COC(=O)[C@]12Oc3ccc(-c4ccc5c(c4O)C(=O)C4(O)C(=O)C[C@@H](C)[C@H](O)[C@@]4(C(=O)OC)O5)c(O)c3C(=O)C1(O)C(=O)C[C@@H](C)[C@@H]2O` (stereo partly specified), the IC50 with CCF-STTG1 was 13.4 µM; with HepG2 [1], 53.6 µM.

Regarding `COC(=O)[C@@]1(C(O)C(C)CC(=O)O)CC(=O)c2c(ccc(-c3ccc4c(c3O)C(=O)C3(O)C(O)C[C@@H](C)[C@H](O)[C@@]3(C(=O)O)O4)c2O)O1` (stereo partly specified), the inhibition result in experiment [2] and in experiment [3] was “inactive” throughout. The half-maximal inhibitory concentration (IC50) with CCF-STTG1 was 7.5 µM.

`COC(=O)[C@]12Oc3ccc(-c4ccc5c(c4O)C(=O)C4=C(O)C[C@@H](C)[C@H](O)[C@@]4(C(=O)OC)O5)c(O)c3C(=O)C1=C(O)C[C@@H](C)[C@@H]2O` [SECALONIC ACID A]: the values for the inhibition in experiment [2], in experiment [5] and in experiment [3] were 100%, 100% and “Dose-dependent effect”, respectively. The half-inhibitory concentration (IC50) in the experiment on CCF-STTG1 was determined as 1 µM; in the experiment with HepG2 [1] it was 0.9 µM.

For the compound `COC(=O)[C@]12Oc3c(-c4ccc(O)c5c4O[C@@]4(C(=O)OC)C(=C(O)C[C@@H](C)[C@@H]4O)C5=O)ccc(O)c3C(=O)C1=C(O)C[C@@H](C)[C@@H]2O`, the figures for the IC50 in the experiment with CCF-STTG1 and in the experiment on HepG2 [1] were 1 µM and 0.9 µM, respectively.

As to `Cc1cc2c(c(O)c1C(=O)O)C(=O)c1c(O)cc(O)cc1C2=O`, in the experiment with HepG2 [6], the result was inactive.

Consider `Cc1cc2c(c(O)c1C(=O)O)C(=O)c1c(O)cc(O)c(O)c1C2=O`, for which the result with HepG2 [6] was inactive.
